Data reported in patent publication EP4741386A1 (Jiangsu Yahong Meditech Co., Ltd., priority 2023, dated 2025).

Key:
[1] = biological target: T1, Recombinant human His6-USP1/His6-UAF1 complex protein (Homo sapiens, UniProt O94782); experiment: In vitro inhibitory activity against USP1 (Ubiquitin Rhodamine 110 fluorescence detection, 384-well plate); assay type: biochemical; details: Ub-Rho substrate, 1 hour pre-incubation, read after 30 minutes
T1 construct: His6; purchased R&D E-568-050
How it was run: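 Compounds, kept as 50 mM DMSO stocks, were acoustically dispensed into modified Tris buffer. Inhibition of recombinant human His6-USP1/His6-UAF1 was read by fluorescence from cleavage of Ub-Rho110 substrate.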

[2] = system: MDA-MB-436; experiment: CTG experiment for cell viability (CellTiter-Glo, 96-well plate, 7 days); assay type: cell-based; details: MDA-MB-436 cells, 7 days culture with compound
How it was run: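 Viability was read by CellTiter-Glo luminescence after 10 min at room temperature, once the compound-containing medium had been replaced with PBS. Before that, MDA-MB-436 cells grown in DMEM were exposed to compounds for 7 days at 37°C. Curve fitting followed the enzyme assay method.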

[3] = Homo sapiens, MDA-MB-436, 168 h

T1 sequence (O94782 whole entry): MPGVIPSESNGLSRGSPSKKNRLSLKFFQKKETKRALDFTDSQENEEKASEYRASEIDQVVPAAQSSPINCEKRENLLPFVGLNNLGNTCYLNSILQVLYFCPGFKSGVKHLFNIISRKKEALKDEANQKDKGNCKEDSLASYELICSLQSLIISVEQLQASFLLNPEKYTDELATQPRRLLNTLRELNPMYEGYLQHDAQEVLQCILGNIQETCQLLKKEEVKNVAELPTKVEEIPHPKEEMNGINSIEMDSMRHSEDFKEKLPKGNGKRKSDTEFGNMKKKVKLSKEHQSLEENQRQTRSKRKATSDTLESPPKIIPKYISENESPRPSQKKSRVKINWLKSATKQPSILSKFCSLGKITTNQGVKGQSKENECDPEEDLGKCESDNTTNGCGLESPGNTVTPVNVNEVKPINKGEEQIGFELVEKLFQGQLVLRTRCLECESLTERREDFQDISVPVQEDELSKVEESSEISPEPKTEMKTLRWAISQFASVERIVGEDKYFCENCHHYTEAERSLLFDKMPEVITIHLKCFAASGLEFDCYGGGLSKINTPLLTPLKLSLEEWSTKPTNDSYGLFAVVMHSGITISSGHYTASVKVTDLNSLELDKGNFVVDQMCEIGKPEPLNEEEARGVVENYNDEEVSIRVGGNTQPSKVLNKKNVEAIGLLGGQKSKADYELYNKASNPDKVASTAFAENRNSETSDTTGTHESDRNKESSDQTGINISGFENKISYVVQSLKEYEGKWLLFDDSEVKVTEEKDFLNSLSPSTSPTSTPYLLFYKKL
T1 sequence (Q8TAF3 whole entry partner): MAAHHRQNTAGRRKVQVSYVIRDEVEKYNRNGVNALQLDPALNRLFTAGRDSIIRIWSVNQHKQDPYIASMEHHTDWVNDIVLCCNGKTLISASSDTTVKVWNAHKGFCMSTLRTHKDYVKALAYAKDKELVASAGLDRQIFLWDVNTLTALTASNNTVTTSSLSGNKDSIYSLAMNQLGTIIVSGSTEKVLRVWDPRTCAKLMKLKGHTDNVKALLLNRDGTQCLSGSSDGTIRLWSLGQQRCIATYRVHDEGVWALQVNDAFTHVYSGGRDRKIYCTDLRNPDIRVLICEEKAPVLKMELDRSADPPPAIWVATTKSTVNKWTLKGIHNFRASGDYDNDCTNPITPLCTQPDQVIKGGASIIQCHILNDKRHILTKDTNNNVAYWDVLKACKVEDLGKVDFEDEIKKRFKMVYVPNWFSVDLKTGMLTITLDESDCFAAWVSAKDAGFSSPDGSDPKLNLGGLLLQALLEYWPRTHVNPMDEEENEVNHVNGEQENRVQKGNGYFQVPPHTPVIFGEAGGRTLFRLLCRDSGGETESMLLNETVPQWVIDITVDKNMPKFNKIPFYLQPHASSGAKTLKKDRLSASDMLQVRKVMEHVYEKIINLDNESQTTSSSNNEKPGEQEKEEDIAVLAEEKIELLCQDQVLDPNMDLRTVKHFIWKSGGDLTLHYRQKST

IC50 [1] | IC50 [2, 3] | IC50 [2] | Structure (SMILES)
144 nM | 694 nM | – | COc1cnc(-c2c(OC)ncnc2C2CC2)nc1NCc1ccc(OCc2ccccn2)cc1 [Example 98, 4'-Cyclopropyl-5,6'-dimethoxy-N-(4-(pyridin-2-ylmethoxy)benzyl)-[2,5'-bipyrimidin]-4-amine]
6 nM | 537 nM | – | COc1cnc(-c2c(Cl)cnn2C(C)C)nc1N(C)CC1CCN(c2ccccn2)CC1 [Example 161, 2-(4-Chloro-1-isopropyl-1H-pyrazol-5-yl)-5-methoxy-N-methyl-N-((1-(pyridin-2-yl)piperidin-4-yl)methyl)pyrimidin-4-amine]
4.6 nM | 0.9 nM | – | COc1cnc(-c2c(OC)ncnc2C2CC2)nc1NCc1ccc(-n2nc(C(F)(F)F)cc2C)cc1 [Example 26, 4'-Cyclopropyl-5,6'-dimethoxy-N-(4-(5-methyl-3-(trifluoromethyl)-1H-pyrazol-1-yl)benzyl)-[2,5'-bipyrimidin]-4-amine]
5.3 nM | 48.3 nM | – | COc1ncnc(C2CC2)c1-c1ncc(OC(C)C)c(N(C)Cc2ccc(-c3nc(C(F)(F)F)cn3C)cc2)n1 [Example 109, 4'-Cyclopropyl-5-isopropoxy-6'-methoxy-N-methyl-N-(4-(1-methyl-4-(trifluoromethyl)-1H-imidazol-2-yl)benzyl)-[2,5'-bipyrimidin]-4-amine]
1.4 nM | 2.3 nM | – | COc1cnc(-c2c(OC)ncnc2C2CC2)nc1N(C)Cc1ccc(-c2nc(C(F)(F)F)cn2C)cc1 [Example 8, 4'-Cyclopropyl-5,6'-dimethoxy-N-methyl-N-(4-(1-methyl-4-(trifluoromethyl)-1H-imidazol-2-yl)benzyl)-[2,5'-bipyrimidin]-4-amine]
2.3 nM | 84.7 nM | – | COc1cc(-c2nc(C(F)(F)F)cn2C)ccc1CNc1nc(-c2ccccc2C2CC2)ncc1OC [Example 171, 2-(2-Cyclopropylphenyl)-5-methoxy-N-(2-methoxy-4-(1-methyl-4-(trifluoromethyl)-1H-imidazol-2-yl)benzyl)pyrimidin-4-amine]
12 nM | 31.9 nM | – | COc1cnc(-c2c(OC)ncnc2OC)nc1N(C)C[C@H]1CC[C@H](c2nc(C(F)(F)F)cn2C2CC2)CC1 [Example S30, N-(((1R,4R)-4-(1-cyclopropyl-4-(trifluoromethyl)-1H-imidazol-2-yl)cyclohexyl)methyl)-4',5,6'-trimethoxy-N-methyl-[2,5'-bipyrimidin]-4-amine]
106 nM | 235 nM | – | COc1cnc(-c2c(C)ncnc2OC2CC2)nc1N(C)C[C@H]1CC[C@H](c2nc(C(F)(F)F)cn2C)CC1 [Example S32]
6 nM | 8.8 nM | – | C#Cc1cnc(-c2c(OC)ncnc2C2CC2)nc1NCc1ccc(-c2nc(C(F)(F)F)cn2C)cc1 [Example 132, 4'-Cyclopropyl-5-ethynyl-6'-methoxy-N-(4-(1-methyl-4-(trifluoromethyl)-1H-imidazol-2-yl)benzyl)-[2,5'-bipyrimidin]-4-amine]
7.1 nM | 1.8 nM | – | COc1cnc(-c2c(OC)ncnc2C(F)(F)F)nc1N(C)C[C@H]1CC[C@H](c2nc(C(F)(F)F)cn2C)CC1 [Example S36, 4',5-Dimethoxy-N-methyl-N-(((1R,4R)-4-(1-methyl-4-(trifluoromethyl)-1H-imidazol-2-yl)cyclohexyl)methyl)-6'-(trifluoromethyl)-[2,5'-bipyrimidin]-4-amine]
6.2 nM | 7.3 nM | – | COc1cnc(-c2cccnc2C2CC2)nc1NCc1ccc(-n2nc(C(F)(F)F)cc2C)cc1 [Example 154, 2-(2-Cyclopropylpyridin-3-yl)-5-methoxy-N-(4-(5-methyl-3-(trifluoromethyl)-1H-pyrazol-1-yl)benzyl)pyrimidin-4-amine]
72 nM | 58.4 nM | – | COc1cnc(-c2cccnc2C2CC2)nc1N(C)CC1CCN(c2ccccn2)CC1 [Example 151, 2-(2-Cyclopropylpyridin-3-yl)-5-methoxy-N-methyl-N-((1-(pyridin-2-yl)piperidin-4-yl)methyl)pyrimidin-4-amine]
3.5 nM | 5.8 nM | – | COc1cnc(-c2c(OC)ncnc2C2CC2)nc1N(C)CC12C3C4C1C1C2C3C41c1nc(C(F)(F)F)cn1C (stereo not drawn) [Example 207, 2-(4-cyclopropyl-6-methoxy-pyrimidin-5-yl)-5-methoxy-N-methyl-N-[[4-[1-methyl-4-(trifluoromethyl)imidazol-2-yl]cuban-1-yl]methyl]pyrimidin-4-amine]
56 nM | 197 nM | – | COc1cnc(-c2c(OC)cnn2C(C)C)nc1NCC1CCN(c2nc(C(F)(F)F)cn2C)CC1 [Example 179, 2-(1-Isopropyl-4-methoxy-1H-pyrazol-5-yl)-5-methoxy-N-((1-(1-methyl-4-(trifluoromcthyl)-1H-imidazol-2-yl)piperidin-4-yl)methyl)pyrimidin-4-amine]
3.6 nM | 121 nM | – | COc1cnc(-c2ccccc2N(C)C)nc1NCc1ccc(-n2nc(C(F)(F)F)cc2C)cc1 [Example 160, 2-(2-(Dimethylamino)phenyl)-5-methoxy-N-(4-(5-methyl-3-(trifluoromethyl)-1H-pyrazol-1-yl)benzyl)pyrimidin-4-amine]
12 nM | 10.7 nM | – | COc1cnc(-c2c(OC)ncnc2C2CC2F)nc1NCC12CCC(c3nc(C(F)(F)F)cn3C)(CC1)CC2 (stereo not drawn) [Example S18, 4'-(2-Fluorocyclopropyl)-5,6'-dimethoxy-N-((4-(1-methyl-4-(trifluoromethyl)-1 H-imidazol-2-yl)bicyclo[2.2.2]oct-1-yl)methyl)-[2,5'-bipyrimidin]-4-amine]
5.6 nM | 14.6 nM | – | COc1cnc(-c2ccccc2C(C)C)nc1NCc1ccc(-c2ccc(C)cn2)cc1 [Example 66, 2-(2-Isopropylphenyl)-5-methoxy-N-(4-(5-methylpyridin-2-yl)benzyl)pyrimidin-4-amine]
2.8 nM | 2.8 nM | – | COc1cnc(-c2c(C)cnn2C(C)C)nc1N(C)Cc1ccc(-c2nc(C(F)(F)F)cn2C)cc1 [Example 200, 2-(1-Isopropyl-4-methyl-1H-pyrazol-5-yl)-5-methoxy-N-methyl-N-(4-(1-methyl-4-(trifluoromethyl)-1H-imidazol-2-yl)benzyl)pyrimidin-4-amine]
15 nM | 99.1 nM | – | COc1cc(CNc2nc(-c3c(OC)ncnc3C3CC3)ncc2OC)ccc1-c1nc(C(F)(F)F)cn1C [Example 101, 4'-Cyclopropyl-5,6'-dimethoxy-N-(3-methoxy-4-(1-methyl-4-(trifluoromethyl)-1H-imidazol-2-yl)benzyl)-[2,5'-bipyrimidin]-4-amine]
12 nM | 17.1 nM | – | COc1cnc(-c2c(OC)ncnc2C2CC2)nc1NCc1ccc(-c2nc(C(F)(F)F)cn2CC(F)(F)F)cc1 [Example S7, 4'-Cyclopropyl-56'-dimethoxy-N-(4-(1-(2,2,2-trifluoroethyl)-4-(trifluoromethyl)-1H-imidazol-2-yl)benzyl)-[2,5'-bipyrimidin]-4-amine]
4 nM | 187 nM | – | COc1cc(CNc2nc(-c3ccccc3C3CC3)nc3ccoc23)ccc1-c1nc(C(F)(F)F)cn1C [Example 176, 2-(2-Cyclopropylphenyl)-N-(3-methoxy-4-(1-methyl-4-(trifluoromethyl)-1H-imidazol-2-yl)benzyl)furo[3,2-d]pyrimidin-4-amine]
2.1 nM | 2.2 nM | – | COc1cnc(-c2ccccc2C(C)C)nc1N(C)CC1CCN(c2nc(C(F)(F)F)cn2C)CC1 [Example 62, 2-(2-Isopropylphenyl)-5-methoxy-N-methyl-N-((1-(1-methyl-4-(trifluoromethyl)-1H-imidazol-2-yl)piperidin-4-yl)methyl)pyrimidin-4-amine]
3.2 nM | 34.1 nM | – | COc1ncnc(C2CC2)c1-c1ncc(OC(F)F)c(NCc2ccc(-c3nc(C(F)(F)F)cn3C)cc2)n1 [Example 134, 4'-Cyclopropyl-5-(difluoromethoxy)-6'-methoxy-N-(4-(1-methyl-4-(trifluoromethyl)-1H-imidazol-2-yl)benzyl)-[2,5'-bipyrimidin]-4-amine]
3.8 nM | – | 5.8 nM | COc1cnc(-c2c(OC)ncnc2C2CC2)nc1N(C)CC12C3C4C1C1C2C3C41c1nc(C(F)(F)F)cn1C (stereo not drawn) [Example S51, 4'-cyclopropyl-5,6'-dimethoxy-N-methyl-N-((4-(1-methyl-4-(trifluoromethyl)-1H-imidazol-2-yl)cuban-1-yl)methyl)-[2,5'-bipyrimidin]-4-amine]
2.9 nM | 4.7 nM | – | COc1cnc(-c2c(OC)ncnc2C2CC2)nc1NCc1ccc(-c2nc(C(F)(F)F)cn2C(C)C)cc1 [Example 106, 4'-Cyclopropyl-N-(4-(1-isopropyl-4-(trifluoromethyl)-1H-imidazol-2-yl)benzyl)-5,6'-dimethoxy-[2,5'-bipyrimidin]-4-amine]
8.3 nM | 23.9 nM | – | COc1cc(-n2nc(C(F)(F)F)cc2C)ccc1CNc1nc(-c2c(OC)ncnc2C2CC2)nc2ccoc12 [Example 121, 2-(4-Cyclopropyl-6-methoxypyrimidin-5-yl)-N-(2-methoxy-4-(5-methyl-3-(trifluoromethyl)-1H-pyrazol-1-yl)benzyl)furo[3,2-d]pyrimidin-4-amine]
2.3 nM | 21.4 nM | – | CC(C)c1ccccc1-c1nc(NCc2ccc(-c3nc(C(F)(F)F)cn3C)cc2)c2ncccc2n1 [Example 40, 2-(2-Isopropylphenyl)-N-(4-(1-methyl-4-(trifluoromethyl)-1H-imidazol-2-yl)benzyl)pyrido[3,2-d]pyrimidin-4-amine]
